Test results from PubChem BioAssay (NCI).
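48-hour exposure; five concentrations; linearly interpolated endpoints. GI50 is the concentration that inhibits growth by half. TGI denotes the concentration required for complete inhibition of growth.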

Experiments:
Experiment in all cases: growth of human tumour cells (NCI), 48 h
TK-10 renal = tested on: TK-10 renal
OVCAR-3 ovarian = tested on: OVCAR-3 ovarian
NCI-H522 lung = tested on: NCI-H522 lung
A498 renal = tested on: A498 renal
NCI-H226 lung = tested on: NCI-H226 lung
UACC-257 melanoma = tested on: UACC-257 melanoma
SN12C renal = tested on: SN12C renal
LOX IMVI melanoma = tested on: LOX IMVI melanoma
SR leukemia = tested on: SR leukemia
SF-539 CNS = tested on: SF-539 CNS
NCI-H460 lung = tested on: NCI-H460 lung
BT-549 breast = tested on: BT-549 breast
786-0 renal = tested on: 786-0 renal
MALME-3M melanoma = tested on: MALME-3M melanoma
OVCAR-4 ovarian = tested on: OVCAR-4 ovarian
U251 CNS = tested on: U251 CNS
KM12 colon = tested on: KM12 colon
UACC-62 melanoma = tested on: UACC-62 melanoma
HCC-2998 colon = tested on: HCC-2998 colon
SF-268 CNS = tested on: SF-268 CNS
CCRF-CEM leukemia = tested on: CCRF-CEM leukemia
DU-145 prostate = tested on: DU-145 prostate
HCT-15 colon = tested on: HCT-15 colon
SNB-75 CNS = tested on: SNB-75 CNS
RXF 393 renal = tested on: RXF 393 renal
K-562 leukemia = tested on: K-562 leukemia
IGROV1 ovarian = tested on: IGROV1 ovarian
MOLT-4 leukemia = tested on: MOLT-4 leukemia
SW-620 colon = tested on: SW-620 colon
PC-3 prostate = tested on: PC-3 prostate
SK-OV-3 ovarian = tested on: SK-OV-3 ovarian
SK-MEL-28 melanoma = tested on: SK-MEL-28 melanoma
HCT-116 colon = tested on: HCT-116 colon
MDA-MB-231 breast = tested on: MDA-MB-231 breast
SNB-19 CNS = tested on: SNB-19 CNS
M14 melanoma = tested on: M14 melanoma
OVCAR-5 ovarian = tested on: OVCAR-5 ovarian
HL-60(TB) leukemia = tested on: HL-60(TB) leukemia
UO-31 renal = tested on: UO-31 renal
EKVX NSCLC = tested on: EKVX NSCLC
HOP-92 NSCLC = tested on: HOP-92 NSCLC
RPMI-8226 leukemia = tested on: RPMI-8226 leukemia
MCF7 breast = tested on: MCF7 breast
HT29 colon = tested on: HT29 colon
A549 NSCLC = tested on: A549 NSCLC
SK-MEL-2 melanoma = tested on: SK-MEL-2 melanoma
HOP-62 NSCLC = tested on: HOP-62 NSCLC
OVCAR-8 ovarian = tested on: OVCAR-8 ovarian
SK-MEL-5 melanoma = tested on: SK-MEL-5 melanoma
NCI/ADR-RES ovarian = tested on: NCI/ADR-RES ovarian
ACHN renal = tested on: ACHN renal
NCI-H23 lung = tested on: NCI-H23 lung
COLO 205 colon = tested on: COLO 205 colon
SF-295 CNS = tested on: SF-295 CNS
HS 578T breast = tested on: HS 578T breast
CAKI-1 renal = tested on: CAKI-1 renal
T-47D breast = tested on: T-47D breast

For `O=C(Nc1ncc(Cc2ccccc2)s1)c1ccc2c(c1)OCCCO2`, the GI50 (TK-10 renal) was 6.17 µM, the TGI (TK-10 renal) was greater than 100 µM and the GI50 (OVCAR-3 ovarian) was 0.614 µM. For the same compound, the TGI (OVCAR-3 ovarian) was greater than 100 µM, the GI50 (NCI-H522 lung) was 1.03 µM and the TGI (NCI-H522 lung) was greater than 100 µM. The GI50 (A498 renal) was 0.282 µM, the TGI (A498 renal) was 3.03 µM and the GI50 (NCI-H226 lung) was 1.44 µM. For the same compound, the TGI (NCI-H226 lung) was greater than 100 µM, the GI50 (UACC-257 melanoma) was 1.61 µM and the TGI (UACC-257 melanoma) was greater than 100 µM. It also gave a GI50 (SN12C renal) of 2.12 µM, a TGI (SN12C renal) greater than 100 µM and a GI50 (LOX IMVI melanoma) of 0.323 µM. It also gave a TGI (LOX IMVI melanoma) greater than 100 µM, a GI50 (SR leukemia) of 0.299 µM and a TGI (SR leukemia) greater than 100 µM. For the same compound, the GI50 (SF-539 CNS) was 0.49 µM, the TGI (SF-539 CNS) was 4.27 µM and the GI50 (NCI-H460 lung) was 0.407 µM. It also gave a TGI (NCI-H460 lung) greater than 100 µM, a GI50 (BT-549 breast) of 1.93 µM and a TGI (BT-549 breast) greater than 100 µM. For the same compound, the GI50 (786-0 renal) was 2.44 µM, the TGI (786-0 renal) was greater than 100 µM and the GI50 (MALME-3M melanoma) was 0.882 µM. It also gave a TGI (MALME-3M melanoma) greater than 100 µM, a GI50 (OVCAR-4 ovarian) of 5.22 µM and a TGI (OVCAR-4 ovarian) greater than 100 µM. It also gave a GI50 (U251 CNS) of 0.631 µM, a TGI (U251 CNS) greater than 100 µM and a GI50 (KM12 colon) of 0.372 µM. For the same compound, the TGI (KM12 colon) was greater than 100 µM, the GI50 (UACC-62 melanoma) was 0.302 µM and the TGI (UACC-62 melanoma) was greater than 100 µM. For the same compound, the GI50 (HCC-2998 colon) was 0.885 µM, the TGI (HCC-2998 colon) was greater than 100 µM and the GI50 (SF-268 CNS) was 1.92 µM. The TGI (SF-268 CNS) was greater than 100 µM, the GI50 (CCRF-CEM leukemia) was 0.524 µM and the TGI (CCRF-CEM leukemia) was greater than 100 µM. For the same compound, the GI50 (DU-145 prostate) was 2.3 µM, the TGI (DU-145 prostate) was greater than 100 µM and the GI50 (HCT-15 colon) was 0.376 µM. For the same compound, the TGI (HCT-15 colon) was greater than 100 µM, the GI50 (SNB-75 CNS) was 0.613 µM and the TGI (SNB-75 CNS) was greater than 29.3 µM. For the same compound, the GI50 (RXF 393 renal) was 1.78 µM, the TGI (RXF 393 renal) was greater than 100 µM and the GI50 (K-562 leukemia) was 0.254 µM. For the same compound, the TGI (K-562 leukemia) was greater than 100 µM, the GI50 (IGROV1 ovarian) was 0.88 µM and the TGI (IGROV1 ovarian) was greater than 100 µM. The GI50 (MOLT-4 leukemia) was 0.478 µM, the TGI (MOLT-4 leukemia) was greater than 100 µM and the GI50 (SW-620 colon) was 0.444 µM. For the same compound, the TGI (SW-620 colon) was greater than 100 µM, the GI50 (PC-3 prostate) was 0.927 µM and the TGI (PC-3 prostate) was greater than 100 µM. It also gave a GI50 (SK-OV-3 ovarian) of 3.17 µM, a TGI (SK-OV-3 ovarian) greater than 100 µM and a GI50 (SK-MEL-28 melanoma) of 0.838 µM. The TGI (SK-MEL-28 melanoma) was greater than 100 µM, the GI50 (HCT-116 colon) was 0.468 µM and the TGI (HCT-116 colon) was greater than 100 µM. For the same compound, the GI50 (MDA-MB-231 breast) was 2.77 µM, the TGI (MDA-MB-231 breast) was greater than 100 µM and the GI50 (SNB-19 CNS) was 1 µM. The TGI (SNB-19 CNS) was greater than 100 µM, the GI50 (M14 melanoma) was 0.374 µM and the TGI (M14 melanoma) was greater than 100 µM. The GI50 (OVCAR-5 ovarian) was 11.5 µM, the TGI (OVCAR-5 ovarian) was greater than 100 µM and the GI50 (HL-60(TB) leukemia) was 0.33 µM. The TGI (HL-60(TB) leukemia) was greater than 51.6 µM, the GI50 (UO-31 renal) was 1.42 µM and the TGI (UO-31 renal) was greater than 100 µM. The GI50 (EKVX NSCLC) was 1.05 µM, the TGI (EKVX NSCLC) was greater than 100 µM and the GI50 (HOP-92 NSCLC) was greater than 24 µM. The TGI (HOP-92 NSCLC) was greater than 100 µM, the GI50 (RPMI-8226 leukemia) was 0.428 µM and the GI50 (MCF7 breast) was 0.374 µM. The TGI (MCF7 breast) was greater than 100 µM, the GI50 (HT29 colon) was 0.361 µM and the TGI (HT29 colon) was greater than 100 µM. It also gave a GI50 (A549 NSCLC) of 0.725 µM, a TGI (A549 NSCLC) greater than 100 µM and a GI50 (SK-MEL-2 melanoma) of 1.36 µM. It also gave a TGI (SK-MEL-2 melanoma) greater than 100 µM, a GI50 (HOP-62 NSCLC) of 0.73 µM and a TGI (HOP-62 NSCLC) greater than 100 µM. For the same compound, the GI50 (OVCAR-8 ovarian) was 2.01 µM, the TGI (OVCAR-8 ovarian) was greater than 100 µM and the GI50 (SK-MEL-5 melanoma) was 0.424 µM. It also gave a TGI (SK-MEL-5 melanoma) of 1.96 µM, a GI50 (NCI/ADR-RES ovarian) of 0.547 µM and a TGI (NCI/ADR-RES ovarian) greater than 100 µM. For the same compound, the GI50 (ACHN renal) was 0.644 µM, the TGI (ACHN renal) was greater than 100 µM and the GI50 (NCI-H23 lung) was 2.43 µM. For the same compound, the TGI (NCI-H23 lung) was greater than 100 µM, the GI50 (COLO 205 colon) was 0.579 µM and the TGI (COLO 205 colon) was greater than 100 µM. The GI50 (SF-295 CNS) was 0.396 µM, the TGI (SF-295 CNS) was greater than 100 µM and the GI50 (HS 578T breast) was 1.14 µM. For the same compound, the TGI (HS 578T breast) was greater than 100 µM, the GI50 (CAKI-1 renal) was 0.526 µM and the TGI (CAKI-1 renal) was greater than 100 µM. The GI50 (T-47D breast) was 0.541 µM and the TGI (T-47D breast) was greater than 100 µM.
